Tests used:
Barnyard grass = experiment: weed control effect in post emergence stage, greenhouse pot spray; format: in vivo; details: sprayed at 2-3 leaf stage, after 3 weeks
Method: (§1) The activity level standard of harmful plant damage (i.e. growth inhibition rate) is as follows: The above described growth control rate is fresh weight control rate. Monocotyledonous and dicotyledonous weed seeds and main crop seeds (i.e. wheat, corn, rice, soybean, cotton, oilseed, millet and Sorghum) were put into a plastic pot loaded with soil. Then covered with 0.5-2 cm soil, the seeds were allowed to grow in good greenhouse environment. The test plants were treated at 2-3 leaf stage 2-3 weeks after sowing. […] The solution was sprayed to the plants with a sprayer. Then the plants were cultured for 3 weeks in the greenhouse.

Flixweed = experiment: as above; format: in vivo; details: 16 g/mu, sprayed at 2-3 leaf stage, after 3 weeks
Method: as §1

Structure (SMILES) | weed control effect (activity level), Barnyard grass (Barnyard grass; 1 g/mu) | weed control effect (activity level), Barnyard grass (Barnyard grass; 2 g/mu) | weed control effect (activity level), Barnyard grass (Barnyard grass; 4 g/mu) | weed control effect (activity level), Barnyard grass (Barnyard grass; 8 g/mu) | weed control effect (activity level), Barnyard grass (Barnyard grass; 16 g/mu) | weed control effect (activity level), Flixweed (Flixweed)
Cc1nn(C)c(O)c1C(=O)c1ccc(S(C)(=O)=O)c(Cn2nc(C(F)(F)F)cc2C(F)(F)F)c1Cl [Compound 41] | 4 (above 30% growth inhibition rate) | 5 (above 50% growth inhibition rate) | 6 (above 60% growth inhibition rate) | 7 (above 70% growth inhibition rate) | 7 (above 70% growth inhibition rate) | 10
CCn1nc(C2CC2)c(C(=O)c2ccc(S(C)(=O)=O)c(Cn3nc(C)cc3C)c2Cl)c1O [Compound 23] | 2 (above 20% growth inhibition rate) | 3 (above 30% growth inhibition rate) | 5 (above 50% growth inhibition rate) | 7 (above 70% growth inhibition rate) | 8 (above 80% growth inhibition rate) | 10
CCn1ncc(C(=O)c2ccc(S(C)(=O)=O)c(Cn3nc(C)cc3C)c2Cl)c1O [Compound 20] | 3 (above 30% growth inhibition rate) | 4 (above 30% growth inhibition rate) | 6 (above 60% growth inhibition rate) | 6 (above 60% growth inhibition rate) | 8 (above 80% growth inhibition rate) | 10
CCn1nc(C)c(C(=O)c2ccc(S(C)(=O)=O)c(Cn3nc(C)cc3C)c2Cl)c1O [Compound 17] | 2 (above 20% growth inhibition rate) | 2 (above 20% growth inhibition rate) | 2 (above 20% growth inhibition rate) | 4 (above 30% growth inhibition rate) | 5 (above 50% growth inhibition rate) | 10
CCc1nn(C(C)C)c(O)c1C(=O)c1ccc(S(C)(=O)=O)c(Cn2nc(C)cc2C)c1Cl [Compound 29] | 2 (above 20% growth inhibition rate) | 3 (above 30% growth inhibition rate) | 5 (above 50% growth inhibition rate) | 7 (above 70% growth inhibition rate) | 8 (above 80% growth inhibition rate) | 10
Cc1cc(C)n(Cc2c(S(C)(=O)=O)ccc(C(=O)c3c(C)nn(C)c3OC(=O)c3nc(Cl)ccc3Cl)c2Cl)n1 [Compound 40] | 3 (above 30% growth inhibition rate) | 5 (above 50% growth inhibition rate) | 5 (above 50% growth inhibition rate) | 7 (above 70% growth inhibition rate) | 8 (above 80% growth inhibition rate) | 10
Cn1nc(C2CC2)c(C(=O)c2ccc(S(C)(=O)=O)c(Cn3cc(Cl)cn3)c2Cl)c1O [Compound 11] | 2 (above 20% growth inhibition rate) | 4 (above 30% growth inhibition rate) | 4 (above 30% growth inhibition rate) | 6 (above 60% growth inhibition rate) | 7 (above 70% growth inhibition rate) | 10
CCc1nn(CC)c(O)c1C(=O)c1ccc(S(C)(=O)=O)c(Cn2nc(C)cc2C)c1Cl [Compound 26] | 2 (above 20% growth inhibition rate) | 2 (above 20% growth inhibition rate) | 4 (above 30% growth inhibition rate) | 3 (above 30% growth inhibition rate) | 5 (above 50% growth inhibition rate) | 10
CCOc1c(C(=O)c2ccc(S(C)(=O)=O)c(Cn3nc(C)cc3C)c2Cl)c(C)nn1C [Compound 37] | 0 | 1 (above 1-10% growth inhibition rate) | 1 (above 1-10% growth inhibition rate) | 2 (above 20% growth inhibition rate) | 2 (above 20% growth inhibition rate) | 2 (above 20% growth inhibition rate)
Cc1nn(C(C)C)c(O)c1C(=O)c1ccc(S(C)(=O)=O)c(Cn2cc(Cl)cn2)c1Cl [Compound 30] | 2 (above 20% growth inhibition rate) | 3 (above 30% growth inhibition rate) | 5 (above 50% growth inhibition rate) | 7 (above 70% growth inhibition rate) | 7 (above 70% growth inhibition rate) | 10
Cc1cnn(Cc2c(S(C)(=O)=O)ccc(C(=O)c3cnn(C)c3O)c2Cl)c1 [Compound 7] | 2 (above 20% growth inhibition rate) | 3 (above 30% growth inhibition rate) | 3 (above 30% growth inhibition rate) | 6 (above 60% growth inhibition rate) | 6 (above 60% growth inhibition rate) | 10
CCc1nn(CC)c(O)c1C(=O)c1ccc(S(C)(=O)=O)c(Cn2cc(C)cn2)c1Cl [Compound 25] | 2 (above 20% growth inhibition rate) | 3 (above 30% growth inhibition rate) | 4 (above 30% growth inhibition rate) | 4 (above 30% growth inhibition rate) | 5 (above 50% growth inhibition rate) | 10
CCOC(=O)Oc1c(C(=O)c2ccc(S(C)(=O)=O)c(Cn3nc(C)cc3C)c2Cl)c(C)nn1C [Compound 36] | 2 (above 20% growth inhibition rate) | 3 (above 30% growth inhibition rate) | 4 (above 30% growth inhibition rate) | 4 (above 30% growth inhibition rate) | 5 (above 50% growth inhibition rate) | 10
Cc1cc(C)n(Cc2c(S(C)(=O)=O)ccc(C(=O)c3cnn(C)c3O)c2Cl)n1 [Compound 9] | 2 (above 20% growth inhibition rate) | 2 (above 20% growth inhibition rate) | 3 (above 30% growth inhibition rate) | 5 (above 50% growth inhibition rate) | 5 (above 50% growth inhibition rate) | 10
Cc1ccn(Cc2c(S(C)(=O)=O)ccc(C(=O)c3cnn(C)c3O)c2Cl)n1 [Compound 8] | 2 (above 20% growth inhibition rate) | 2 (above 20% growth inhibition rate) | 4 (above 30% growth inhibition rate) | 7 (above 70% growth inhibition rate) | 8 (above 80% growth inhibition rate) | 10
CCS(=O)(=O)Oc1c(C(=O)c2ccc(S(C)(=O)=O)c(Cn3cc(C)cn3)c2Cl)c(C)nn1C [Compound 32] | 5 (above 50% growth inhibition rate) | 6 (above 60% growth inhibition rate) | 5 (above 50% growth inhibition rate) | 7 (above 70% growth inhibition rate) | 8 (above 80% growth inhibition rate) | 10
CCn1nc(C)c(C(=O)c2ccc(S(C)(=O)=O)c(Cn3cc(C)cn3)c2Cl)c1O [Compound 16] | 2 (above 20% growth inhibition rate) | 3 (above 30% growth inhibition rate) | 4 (above 30% growth inhibition rate) | 4 (above 30% growth inhibition rate) | 6 (above 60% growth inhibition rate) | 10
CCn1ncc(C(=O)c2ccc(S(C)(=O)=O)c(Cn3cc(C)cn3)c2Cl)c1O [Compound 19] | 2 (above 20% growth inhibition rate) | 3 (above 30% growth inhibition rate) | 3 (above 30% growth inhibition rate) | 4 (above 30% growth inhibition rate) | 4 (above 30% growth inhibition rate) | 10
